Reference: the supplement of paper PMC10307832

Legend:
Assay in all cases: relative viability (nuclei count vs DMSO), 5 days (fraction); higher = more cells survive
[1] = system: NCI-H322M
In short: (§1)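 Lung cancer cell lines were pin-tool dosed in 1536-well plates on the day after seeding, with either a lone drug or a fixed anchor-drug dose plus five library-drug doses (not always all listed) in √10 steps. Nuclei were counted on 4× images after 5 days. Relative viability is the ratio of treated-well to vehicle-well nuclei counts, with each value a median of duplicate plates.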

[2] = system: NCI-H1793
In short: as §1

[3] = system: UMC-11
In short: as §1

[4] = system: EPLC-272H
In short: as §1

[5] = system: 201T
In short: as §1

[6] = system: NCI-H1734
In short: as §1

[7] = system: NCI-H2023
In short: as §1

[8] = system: NCI-H441
In short: as §1

[9] = system: NCI-H2405
In short: as §1

[10] = system: NCI-H3122
In short: as §1

[11] = system: PC-14
In short: as §1

[12] = system: COR-L23
In short: as §1

[13] = system: HCC-15
In short: as §1

[14] = system: NCI-H2170
In short: as §1

[15] = system: NCI-H2347
In short: as §1

[16] = system: NCI-H647
In short: as §1

[17] = system: NCI-H1650
In short: as §1

[18] = system: NCI-H520
In short: as §1

[19] = system: H3255
In short: as §1

[20] = system: LOU-NH91
In short: as §1

SMILES: COc1cc2nccc(Oc3ccc(NC(=O)Nc4cc(C)on4)c(Cl)c3)c2cc1OC [Tivozanib] + CC1(C)CCC(c2ccc(Cl)cc2)=C(CN2CCN(c3ccc(C(=O)NS(=O)(=O)c4ccc(N[C@H](CCN5CCOCC5)CSc5ccccc5)c(S(=O)(=O)C(F)(F)F)c4)cc3)CC2)C1 [Navitoclax] (partner 0.5 µM)
- relative viability ([1]; first compound 0.005 µM): 1.23
- relative viability ([1]; first compound 0.01581 µM): 1.09
- relative viability ([1]; first compound 0.05 µM): 1.28
- relative viability ([1]; first compound 0.1581 µM): 1.22
- relative viability ([1]; first compound 0.5 µM): 1.14
- relative viability ([2]; first compound 0.005 µM): 0.351
- relative viability ([2]; first compound 0.01581 µM): 0.466
- relative viability ([2]; first compound 0.05 µM): 0.413
- relative viability ([2]; first compound 0.5 µM): 0.438
- relative viability ([3]; first compound 0.005 µM): 0.314
- relative viability ([3]; first compound 0.01581 µM): 0.322
- relative viability ([3]; first compound 0.05 µM): 0.306
- relative viability ([3]; first compound 0.5 µM): 0.329
- relative viability ([4]; first compound 0.005 µM): 0.916
- relative viability ([4]; first compound 0.01581 µM): 1.25
- relative viability ([4]; first compound 0.05 µM): 1.34
- relative viability ([4]; first compound 0.1581 µM): 0.967
- relative viability ([4]; first compound 0.5 µM): 0.911
- relative viability ([5]; first compound 0.005 µM): 1.21
- relative viability ([5]; first compound 0.01581 µM): 1.17
- relative viability ([5]; first compound 0.05 µM): 1.22
- relative viability ([5]; first compound 0.1581 µM): 1.17
- relative viability ([5]; first compound 0.5 µM): 1.18
- relative viability ([6]; first compound 0.005 µM): 0.865
- relative viability ([6]; first compound 0.01581 µM): 0.804
- relative viability ([6]; first compound 0.05 µM): 0.823
- relative viability ([6]; first compound 0.1581 µM): 0.734
- relative viability ([6]; first compound 0.5 µM): 0.82
- relative viability ([7]; first compound 0.005 µM): 0.909
- relative viability ([7]; first compound 0.01581 µM): 1.02
- relative viability ([7]; first compound 0.05 µM): 1.04
- relative viability ([7]; first compound 0.1581 µM): 0.962
- relative viability ([7]; first compound 0.5 µM): 0.954
- relative viability ([8]; first compound 0.005 µM): 0.473
- relative viability ([8]; first compound 0.01581 µM): 0.424
- relative viability ([8]; first compound 0.05 µM): 0.747
- relative viability ([8]; first compound 0.1581 µM): 0.566
- relative viability ([8]; first compound 0.5 µM): 0.545
- relative viability ([9]; first compound 0.005 µM): 0.861
- relative viability ([9]; first compound 0.01581 µM): 1.09
- relative viability ([9]; first compound 0.05 µM): 0.74
- relative viability ([9]; first compound 0.1581 µM): 1.02
- relative viability ([9]; first compound 0.5 µM): 0.498
- relative viability ([10]; first compound 0.005 µM): 1.03
- relative viability ([10]; first compound 0.01581 µM): 1
- relative viability ([10]; first compound 0.05 µM): 1.07
- relative viability ([10]; first compound 0.1581 µM): 1.03
- relative viability ([10]; first compound 0.5 µM): 1.03
- relative viability ([11]; first compound 0.005 µM): 0.98
- relative viability ([11]; first compound 0.01581 µM): 1.04
- relative viability ([11]; first compound 0.05 µM): 1.11
- relative viability ([11]; first compound 0.1581 µM): 1.07
- relative viability ([11]; first compound 0.5 µM): 1
- relative viability ([12]; first compound 0.005 µM): 0.955
- relative viability ([12]; first compound 0.01581 µM): 0.998
- relative viability ([12]; first compound 0.05 µM): 1.04
- relative viability ([12]; first compound 0.1581 µM): 0.935
- relative viability ([12]; first compound 0.5 µM): 0.817
- relative viability ([13]; first compound 0.005 µM): 0.719
- relative viability ([13]; first compound 0.01581 µM): 0.676
- relative viability ([13]; first compound 0.05 µM): 0.67
- relative viability ([13]; first compound 0.1581 µM): 0.742
- relative viability ([13]; first compound 0.5 µM): 0.728
- relative viability ([14]; first compound 0.005 µM): 0.537
- relative viability ([14]; first compound 0.01581 µM): 0.568
- relative viability ([14]; first compound 0.05 µM): 0.677
- relative viability ([14]; first compound 0.5 µM): 0.584
- relative viability ([15]; first compound 0.005 µM): 0.735
- relative viability ([15]; first compound 0.01581 µM): 0.765
- relative viability ([15]; first compound 0.05 µM): 0.847
- relative viability ([15]; first compound 0.1581 µM): 0.735
- relative viability ([15]; first compound 0.5 µM): 0.804
- relative viability ([16]; first compound 0.005 µM): 1.12
- relative viability ([16]; first compound 0.01581 µM): 1.24
- relative viability ([16]; first compound 0.05 µM): 1.21
- relative viability ([16]; first compound 0.1581 µM): 1.19
- relative viability ([16]; first compound 0.5 µM): 1.03
- relative viability ([17]; first compound 0.005 µM): 1.1
- relative viability ([17]; first compound 0.01581 µM): 1.2
- relative viability ([17]; first compound 0.05 µM): 1.15
- relative viability ([17]; first compound 0.1581 µM): 1.28
- relative viability ([17]; first compound 0.5 µM): 1.53
- relative viability ([18]; first compound 0.005 µM): 1.09
- relative viability ([18]; first compound 0.01581 µM): 0.962
- relative viability ([18]; first compound 0.05 µM): 0.969
- relative viability ([18]; first compound 0.1581 µM): 0.782
- relative viability ([18]; first compound 0.5 µM): 0.887
- relative viability ([19]; first compound 0.005 µM): 0.446
- relative viability ([19]; first compound 0.01581 µM): 0.482
- relative viability ([19]; first compound 0.05 µM): 0.495
- relative viability ([19]; first compound 0.1581 µM): 0.328
- relative viability ([19]; first compound 0.5 µM): 0.516
- relative viability ([20]; first compound 0.005 µM): 0.641
- relative viability ([20]; first compound 0.01581 µM): 0.715
- relative viability ([20]; first compound 0.05 µM): 0.706
- relative viability ([20]; first compound 0.1581 µM): 0.675
- relative viability ([20]; first compound 0.5 µM): 0.705
